Legend:
[1] = test system: Pseudomonas aeruginosa; test: Growth inhibition of Pseudomonas aeruginosa PA14 at 2 mM after 24 hrs relative to control; conditions: 2000 µM
[2] = test system: Pseudomonas aeruginosa; test: Growth inhibition of Pseudomonas aeruginosa MH602 at 500 uM after 24 hrs relative to control; conditions: MH602, 24 h, read-out: GI
[3] = test system: Escherichia coli; test: Inhibition of LuxR-dependent quorum sensing activity in Escherichia coli MT102 harboring pJBA132 assessed as inhibition of OHHL-induced GFP expression at 1 mM measured after 24 hrs by fluorescence assay relative to control
[4] = test system: Pseudomonas aeruginosa PA14; test: Inhibition of quorum sensing-regulated biofilm formation in Pseudomonas aeruginosa PA14 at 2 mM after overnight incubation by crystal violet staining based assay relative to control
[5] = test system: Escherichia coli; test: Inhibition of LuxR-dependent quorum sensing activity in Escherichia coli MT102 harboring pJBA132 assessed as inhibition of OHHL-induced GFP expression at 500 uM measured after 8 hrs by fluorescence assay relative to control
[6] = test system: Escherichia coli; test: Growth inhibition of Escherichia coli MT102 at 2 mM after 24 hrs relative to control; conditions: MT102, 24 h, read-out: GI
[7] = test system: Pseudomonas aeruginosa; test: Growth inhibition of Pseudomonas aeruginosa MH602 at 500 uM after 8 hrs relative to control; conditions: MH602, 8 h, read-out: GI
[8] = test system: Pseudomonas aeruginosa; test: Inhibition of LasR-dependent quorum sensing activity in Pseudomonas aeruginosa MH602 harboring GFP-fused […] LasB promoter assessed as inhibition of 3-oxo-dodecanoyl HSL-induced GFP expression at 2 mM measured after 8 hrs by fluorescence assay relative to control
[9] = test system: Pseudomonas aeruginosa; test: Growth inhibition of Pseudomonas aeruginosa MH602 at 1 mM after 24 hrs relative to control; conditions: MH602, 24 h, read-out: GI
[10] = test system: Escherichia coli; test: Inhibition of LuxR-dependent quorum sensing activity in Escherichia coli MT102 harboring pJBA132 assessed as inhibition of OHHL-induced GFP expression at 1 mM measured after 8 hrs by fluorescence assay relative to control
[11] = test system: Escherichia coli; test: Growth inhibition of Escherichia coli MT102 at 500 uM after 24 hrs relative to control; conditions: MT102, 24 h, read-out: GI
[12] = test system: Pseudomonas aeruginosa; test: Growth inhibition of Pseudomonas aeruginosa MH602 at 2 mM after 24 hrs relative to control; conditions: MH602, 24 h, read-out: GI
[13] = test system: Escherichia coli; test: Growth inhibition of Escherichia coli MT102 at 1 mM after 8 hrs relative to control; conditions: MT102, 8 h, read-out: GI
[14] = test system: Pseudomonas aeruginosa; test: Inhibition of LasR-dependent quorum sensing activity in Pseudomonas aeruginosa MH602 harboring GFP-fused […] LasB promoter assessed as inhibition of 3-oxo-dodecanoyl HSL-induced GFP expression at 2 mM measured after 24 hrs by fluorescence assay relative to control
[15] = test system: Pseudomonas aeruginosa; test: Growth inhibition of Pseudomonas aeruginosa MH602 at 1 mM after 8 hrs relative to control; conditions: MH602, 8 h, read-out: GI
[16] = test system: Escherichia coli; test: Inhibition of LuxR-dependent quorum sensing activity in Escherichia coli MT102 harboring pJBA132 assessed as inhibition of OHHL-induced GFP expression at 500 uM measured after 24 hrs by fluorescence assay relative to control
[17] = test system: Escherichia coli; test: Growth inhibition of Escherichia coli MT102 at 500 uM after 8 hrs relative to control; conditions: MT102, 8 h, read-out: GI
[18] = test system: Escherichia coli; test: Inhibition of LuxR-dependent quorum sensing activity in Escherichia coli MT102 harboring pJBA132 assessed as inhibition of OHHL-induced GFP expression at 2 mM measured after 8 hrs by fluorescence assay relative to control
[19] = test system: Pseudomonas aeruginosa; test: Inhibition of LasR-dependent quorum sensing activity in Pseudomonas aeruginosa MH602 harboring GFP-fused […] LasB promoter assessed as inhibition of 3-oxo-dodecanoyl HSL-induced GFP expression at 500 uM measured after 8 hrs by fluorescence assay relative to control
[20] = test system: Escherichia coli; test: Growth inhibition of Escherichia coli MT102 at 2 mM after 8 hrs relative to control; conditions: MT102, 8 h, read-out: GI
[21] = test system: Pseudomonas aeruginosa; test: Growth inhibition of Pseudomonas aeruginosa MH602 at 2 mM after 8 hrs relative to control; conditions: MH602, 8 h, read-out: GI
[22] = test system: Pseudomonas aeruginosa; test: Inhibition of LasR-dependent quorum sensing activity in Pseudomonas aeruginosa MH602 harboring GFP-fused […] LasB promoter assessed as inhibition of 3-oxo-dodecanoyl HSL-induced GFP expression at 1 mM measured after 8 hrs by fluorescence assay relative to control
[23] = test system: Escherichia coli; test: Inhibition of LuxR-dependent quorum sensing activity in Escherichia coli MT102 harboring pJBA132 assessed as inhibition of OHHL-induced GFP expression at 2 mM measured after 24 hrs by fluorescence assay relative to control
[24] = test system: Escherichia coli; test: Growth inhibition of Escherichia coli MT102 at 1 mM after 24 hrs relative to control; conditions: MT102, 24 h, read-out: GI
[25] = test system: Pseudomonas aeruginosa; test: Inhibition of LasR-dependent quorum sensing activity in Pseudomonas aeruginosa MH602 harboring GFP-fused […] LasB promoter assessed as inhibition of 3-oxo-dodecanoyl HSL-induced GFP expression at 500 uM measured after 24 hrs by fluorescence assay relative to control
[26] = test system: Pseudomonas aeruginosa PA14; test: Inhibition of quorum sensing-regulated pyocyanin production in Pseudomonas aeruginosa PA14 at 2 mM after 24 hrs relative to control
[27] = test system: Pseudomonas aeruginosa; test: Inhibition of LasR-dependent quorum sensing activity in Pseudomonas aeruginosa MH602 harboring GFP-fused […] LasB promoter assessed as inhibition of 3-oxo-dodecanoyl HSL-induced GFP expression at 1 mM measured after 24 hrs by fluorescence assay relative to control

SMILES | growth inhibition (GI) [1] | inhibition at 500 µM [2] [%] | inhibition [3] [%] | inhibition [4] [%] | inhibition [5] [%] | inhibition at 2000 µM [6] [%] | inhibition at 500 µM [7] [%] | inhibition [8] [%] | inhibition at 1000 µM [9] [%] | inhibition at 500 µM [11] [%] | inhibition at 2000 µM [12] [%] | inhibition at 1000 µM [13] [%] | inhibition at 1000 µM [15] [%] | inhibition at 500 µM [17] [%] | inhibition [19] [%] | inhibition at 2000 µM [20] [%] | inhibition at 2000 µM [21] [%] | inhibition [22] [%] | inhibition [23] [%] | inhibition at 1000 µM [24] [%] | also measured
O=C(CCCc1ccccc1)N[C@@H]1[C@@H](O)[C@H](O)[C@@H](CO)O[C@H]1O | Non-Toxic | 0 | 46.7 | 4.8 | 8.7 | 2.7 | 2.6 | 38.9 | 2 | 7.7 | 0 | 0 | 2.1 | 17.9 | 5.6 | 21.2 | 15.8 | 9.9 | 85 | 8.8 | inhibition [10]: 43.4%; inhibition [14]: 17.4%; inhibition [16]: 4.3%; inhibition [18]: 76.2%
CC(=O)N[C@@H]1[C@@H](O)[C@H](O)[C@@H](CO)O[C@H]1O [N-ACETYLGLUCOSAMINE] | Non-Toxic | 2.7 | 69.3 |  | 36.2 | 10.3 | 0 | 81.3 | 0 | 14.7 | 0 | 7.8 | 0 | 6.1 | 16.3 | 0 | 12.5 | 29.6 | 96.1 | 0 | inhibition [10]: 85%; inhibition [25]: 13.6%; inhibition [16]: 18.8%; inhibition [18]: 86.5%
CCCC(=O)N[C@@H]1[C@@H](O)[C@H](O)[C@@H](CO)O[C@H]1O | Non-Toxic | 5.9 | 93.5 | 22.4 | 51.7 | 10.7 | 8.9 | 79.1 | 0 | 13.5 | 4.4 | 34.5 | 0 | 37.9 | 13.5 | 83.6 | 29.8 | 22.5 | 97.5 | 13.9 | inhibition [10]: 92.7%; inhibition [25]: 10.7%; inhibition [26]: 10.6%; inhibition [14]: 13.4%; inhibition [16]: 46.5%; inhibition [18]: 98.4%
COc1ccc(CC(=O)N[C@H]2[C@H](OC(C)=O)O[C@H](COC(C)=O)[C@@H](OC(C)=O)[C@@H]2OC(C)=O)cc1 | Non-Toxic | 3.9 | 28.7 | 5.6 | 6.6 | 0 | 0 | 0.9 | 0 | 4.5 | 0 | 0 | 0 | 0 | 4.2 | 0 | 0 | 9.6 | 25.4 | 0 | inhibition [25]: 17.8%; inhibition [26]: 0.4%; inhibition [14]: 18.6%; inhibition [27]: 19.4%
CCCC(=O)N[C@H]1[C@H](OC(C)=O)O[C@H](COC(C)=O)[C@@H](OC(C)=O)[C@@H]1OC(C)=O | Non-Toxic | 0 | 4.4 | 7.8 | 10.1 | 0 | 3.4 | 10.8 | 0 | 3 | 0 | 0 | 0.9 | 9.4 | 3.6 | 0 | 0 | 11 | 23.4 | 5 | inhibition [10]: 21.9%; inhibition [25]: 2.5%; inhibition [26]: 1.5%; inhibition [14]: 22.2%; inhibition [16]: 2.1%; inhibition [18]: 6.1%
COc1ccc(CC(=O)N[C@@H]2[C@@H](O)[C@H](O)[C@@H](CO)O[C@H]2O)cc1 | Non-Toxic | 2.9 | 20.2 | 16.6 | 6.7 | 3 | 0 | 0.8 | 3.3 | 0 | 0 | 0 | 0 | 0 | 3.2 | 0 | 0 | 7.5 | 2.6 | 0 | inhibition [10]: 10.1%; inhibition [14]: 3%; inhibition [16]: 16%; inhibition [18]: 3.5%
